Test results reported in patent US8936930B2, “Red microalgae expressing exogenous polypeptides and methods of generating and utilizing same” (priority 2004, dated 2015).

Tested on: Porphyridium sp.
Assay: Antibiotic sensitivities of Porphyridium sp. (growth in ASW supplemented with antibiotic)
Format: cell-based, Porphyridium sp. (UTEX 637)
Parameters: key to Growth: ++: no inhibition of growth rate; +: slight inhibition of growth rate; −: no growth
Details: for Growth: Porphyridium sp. in ASW
Method: Porphyridium sp. (UTEX 637, from the culture collection of algae at the University of Texas at Austin) cells were cultured in artificial seawater (ASW; Jones et al. Plant Physiol. 16:636-643, 1963) supplemented with different antibiotic compounds for evaluating antibiotic sensitivities.

Q: `CN[C@@H]1[C@@H](O)[C@@H](O[C@@H]2[C@@H](O)[C@H](O[C@H]3O[C@H]([C@@H](C)O)[C@@H](O)[C@H](O)[C@H]3N)[C@@H](N)C[C@H]2N)OC[C@]1(C)O` [G418] was tested. Which Growth (2 μg/ml) did it give?
A: +

Q: How did the Growth (5 μM) turn out when `C[C@@H]1C[C@@H]([C@H](O)CC2CC(=O)NC(=O)C2)C(=O)[C@@H](C)C1` [Cyclohexhimide] was run?
A: −

Q: With Phleomycin as the compound, how does the Growth (10 μg/ml) read?
A: ++

Q: Which Growth (80 μg/ml) does the source give for `CN(Cc1cnc2nc(N)nc(N)c2n1)c1ccc(C(=O)N[C@@H](CCC(=O)O)C(=O)O)cc1` [Methotrexate] here?
A: ++

Q: How did the “Growth of untransformed (wild-type) Porphyridium sp. (in words)” value (zeocin 4 μg/ml, 17 days incubation in ASW medium) turn out when `Cc1c(N)nc([C@H](CC(N)=O)NC[C@H](N)C(N)=O)nc1C(=O)N[C@H](C(=O)N[C@H](C)[C@@H](O)[C@H](C)C(=O)N[C@H](C(=O)NCCC1=N[C@@H](c2nc(C(=O)NCCCCN=C(N)N)cs2)CS1)[C@@H](C)O)[C@@H](O[C@@H]1O[C@@H](CO)[C@@H](O)[C@H](O)[C@@H]1O[C@H]1O[C@H](CO)[C@@H](O)[C@H](OC(N)=O)[C@@H]1O)c1cnc[nH]1` [Zeocin] was run?
A: no growth

Q: And the “Growth of wild type Porphyridium sp. (in words)” value (zeocin 10 μg/ml)?
A: no growth

Q: What about the “Growth of Porphyridium sp. (in words)” value (zeocin 4-8 μg/ml) of the same compound?
A: no growth

Q: `NC[C@H]1O[C@H](O[C@H]2[C@H](O)[C@@H](O[C@H]3O[C@H](CO)[C@@H](O)[C@H](N)[C@H]3O)[C@H](N)C[C@@H]2N)[C@H](O)[C@@H](O)[C@@H]1O` [Kanamycin] was tested. Which Growth (700 μg/ml) did it give?
A: ++

Q: `CCC[C@@H]1C[C@@H](C(=O)N[C@@H]([C@H]2O[C@H](SC)[C@H](O)[C@@H](O)[C@H]2O)[C@@H](C)O)N(C)C1` [Lincomycin] was tested. Which Growth (300 μg/ml) did it give?
A: ++

Q: Which Growth (150 μg/ml) does the source give for Neomycin here?
A: ++

Q: How did the Growth (300 μg/ml) turn out when `CN[C@@H]1[C@H](O)[C@H](NC)[C@H]2O[C@@]3(O)C(=O)C[C@@H](C)O[C@H]3O[C@@H]2[C@H]1O` [Spectinomycin] was run?
A: ++

Q: With `NC[C@@H]1O[C@H](O[C@H]2[C@@H](O)[C@H](O[C@@H]3[C@@H](O)[C@H](N)C[C@H](N)[C@H]3O[C@H]3O[C@H](CO)[C@@H](O)[C@H](O)[C@H]3N)O[C@@H]2CO)[C@H](N)[C@@H](O)[C@@H]1O` [Paramomycin] as the compound, how does the Growth (200 μg/ml) read?
A: ++

Q: Which results are given for `O=C(N[C@H](CO)[C@H](O)c1ccc([N+](=O)[O-])cc1)C(Cl)Cl` [Chloramphenicol]?
A: Growth (200 μg/ml): +; Growth (500 μg/ml): −
